Patent publication EP0486280A2, “Piperidinylcamphorsulfonyl oxytocin antagonists” (MERCK & CO. INC., priority 1990, dated 1992)

Target: T1, uterine OT receptors (Rattus norvegicus, UniProt P70536)
T1 construct: from tissue; host or cells: uterus of DES-treated rats, crude membranes
T1 sequence (P70536 1-388): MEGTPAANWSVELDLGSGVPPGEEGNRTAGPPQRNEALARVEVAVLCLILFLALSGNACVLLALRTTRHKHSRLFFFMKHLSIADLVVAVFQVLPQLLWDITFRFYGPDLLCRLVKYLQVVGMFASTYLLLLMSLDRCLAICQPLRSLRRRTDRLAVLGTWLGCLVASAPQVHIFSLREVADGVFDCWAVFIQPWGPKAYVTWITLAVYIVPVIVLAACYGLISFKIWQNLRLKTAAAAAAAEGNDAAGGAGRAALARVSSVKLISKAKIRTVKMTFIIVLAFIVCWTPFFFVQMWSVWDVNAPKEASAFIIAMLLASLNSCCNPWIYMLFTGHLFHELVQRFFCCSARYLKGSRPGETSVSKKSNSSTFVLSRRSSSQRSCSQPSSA
Assay: saturation binding of [^3H]OT, crude membrane preparation of uteri
Design: species or system rats
Conditions: radioligand Kd from saturation binding assay; uterus
Method: The high affinity binding of [^3H] Oxytocin(OT)([tyrosyl, 3,5-[^3H]OT; 30-60 Ci/mmol; New England Nuclear. Boston, MA) to uterine OT receptors was based on an assay^* using a crude membrane preparation of uteri taken from diethylstilbestrol dipropionate (DES)-treated (0.3 mg/kg, ip; 18-24) rats. Competition studies were conducted at equilibrium (60 minutes; 22°C) using 1 nM[^3H]OT in the following assay buffer: 50 mM Tris-HCI, 5 mM MgCl2, and 0.1% BSA, pH 7.4. Nonspecific binding (10% of the total binding) was determined using 1 mM unlabeled OT and the binding reaction was terminated by filtration through glass fiber filters using a cell harvester (model 7019, Skatron, Inc., Sterling, VA).
1985 J. Clin. Endocrinol. Metab. 60:37.

Q: Which Kd does the source give for `CC[C@H](C)[C@@H]1NC(=O)[C@H](Cc2ccc(O)cc2)NC(=O)[C@@H](N)CSSC[C@@H](C(=O)N2CCC[C@H]2C(=O)N[C@@H](CC(C)C)C(=O)NCC(N)=O)NC(=O)[C@H](CC(N)=O)NC(=O)[C@H](CCC(N)=O)NC1=O` [[^3H]OT] here?
A: The Kd was 0.7 nM.
